Values joined by “and” are separate entries in the source; they are usually repeats but may differ in a detail not shown here. Equal values may be shown once.
How the values were obtained:
[1] = Storage stability of the unlabeled compound; format: physicochemical
[2] = target: T1, recombinant human PSMA (Homo sapiens, UniProt Q04609); assay: fluorescence-based NAALADase enzymatic assay; format: biochemical; details: for IC50: rhPSMA, NAAG substrate, three assays in triplicate, read-out: IC50 (affinity to PSMA)
T1 construct: purchased R&D systems, Abingdon, UK
Description: The assay buffer (50 mM HEPES, 0.1 M NaCl, pH 7.5) was used to dilute the recombinant human PSMA (rhPSMA, R&D systems, Abingdon, UK) to 0.4 µg/mL, as well as the enzymatic substrate Ac-Asp-Glu (NAAG) (40 μM in assay buffer). 3p-C-NETA-ePSMA-16 and an internal reference, PSMA-617, were dissolved in assay buffer at concentrations ranging from 10^−5 to 10^−12 M. 6.25 µL of the compound were incubated with 6.25 µL of the substrate to which 12.5 µL of rhPSMA solution was added, and incubated for 1 h at 37 °C in 384-well black polystyrene microplates. Next, 25 µL of a working solution of the Amplex Red glutamic acid kit (ThermoFisher, Bleiswijk, The Netherlands) was added and incubated at 37 °C for 30 min to measure glutamate released. A HIDEX Sense Optical System (HIDEX, Goedereede, The Netherlands) was used to measure the fluorescence, with excitation set at 535 nm and emission at 590 nm. Assays were performed in triplicate and as three separate replicates. Data were normalized and analyzed using a one-site total binding regression algorithm from GraphPad Prism 9 (GraphPad Software, Boston, MA, USA).

[3] = radiolabeled with 88Y, 177Lu and 205/206Bi; cited from earlier work
[4] = system: LS174T PSMA+ cells; assay: Cell uptake and internalization assay; format: cell-based, human
Description: LS174T human colon carcinoma cells transfected with human PSMA were provided by Dr. Sandra Heskamp (Radboudumc, Nijmegen, The Netherlands). RPMI-1640 media supplemented with 2 mM glutamine, 10% fetal bovine serum (FBS), and 0.3 mg/mL G418 (Geneticin, Sigma Aldrich, Burlington, MA, USA) was used to culture the cells. PC-3-Pip and PC-3-Flu cells were received from Prof. Martin G. Pomper (John Hopkins University, Baltimore, MD, USA).
LS174T cells were seeded (1.2 × 10^6 cells/well) and cultured to confluency 24 h prior to the experiments. […] Blocking experiments were also performed using a 50-fold excess of either PSMA-617 or 3p-C-NETA-ePSMA-16. The media was removed, and wells were then rinsed twice with PBS at rt. To each well, we added 2 mL of the radioactive compound, which was incubated at 37 °C for 2 h. Internalization assay: the media containing the radioactive compound was removed from each well, followed by two washes with 1 mL cold PBS. Glycine buffer (1 mL, 50 mM glycine, 100 mM NaCl, pH 2.8) was immediately added to the wells prior to incubation at rt for 10 min. The glycine wash and an additional wash were collected into counting tubes (membrane-bound fraction). NaOH (1 mL, 1 M) was added to each well for 15 min at rt. The internalized fraction (lysate) and an additional NaOH wash were collected in the same tubes. Data were normalized to the added dose per 1,000,000 cells (AD/10^6 cells) and represented as counts per minute (CPM).

[5] = LogD7.4 shake-flask method; format: physicochemical; details: n-octanol/PBS pH 7.4, n = 3
Description: The distribution coefficient (LogD7.4) was determined by a shake-flask method in triplicate. […] The mixture was vortexed vigorously and then centrifuged at 5000× g for 15 min for phase separation. Samples of the two phases (3 × 10 μL) were taken out and measured using a PerkinElmer Wizard 2 γ-counter. LogD7.4 values were calculated using the following equation: LogD7.4 = log [(counts in octanol phase)/(counts in aqueous phase)] [34].

[6] = system: PSMA+ LS174T tumor xenografts; assay: Ex vivo biodistribution in LS174T tumor-bearing BALB/c nude mice; parameters: species or system mouse
Description: (§1) We housed 8–10 weeks old male BALB/c nude mice (BALB/cAnN Rj-Nude; Janvier Labs, Le Genest-Saint-Isle, France) in individually ventilated cages (Blue line IVC, 2 mice per cage). Sterile standard conditions were employed with the presence of cage enrichment and unlimited access to water and animal chow (Sniff GmbH). Acclimatization was realized 1 week before the beginning of the experiments. Mice were subcutaneously inoculated in their right flank with LS174T cells (4.0 × 10^6) diluted in 100 µL of cell suspension. Tumors grew to an average volume of 217.8 ± 9.4 mm^3 in 7 days (average weight of 217 ± 14.4 mg), and mice were grouped non-blinded to afford homogenous tumor size distribution intra-groups. […] All experiments were in accordance with the guidelines of the Revised Dutch Act on Animal Experimentation (WOD).
Mice (n = 4/group) were euthanized via cervical dislocation at 1, 4, and 24 h post-injection (p.i.). A block group (n = 4) containing a 50-fold excess of 3p-C-NETA-ePSMA-16 was also included in the study (euthanized at 4 h p.i.). Tissues were collected in tubes, weighted, and counted in the gamma counter.

[7] = Transchelation/challenge study with excess EDTA; format: physicochemical; details: 37 °C, 24 h
Description: Samples were analyzed by iTLC at 1, 4, and 24 h after incubation to determine the percentage (%) of intact radioligand [16].

[8] = system: PSMA+ LS174T tumor xenografts; assay: SPECT/CT imaging in LS174T tumor-bearing mice; format: in vivo, mouse; details: 1 h p.i.
Description: as §1
At 1 and 24 h p.i., mice were placed under 2% isoflurane/O2 anesthesia on a heated bed and imaged in a dedicated small-animal PET/SPECT/CT scanner (VECTor5CT scanner, MILabs B.V., Utrecht, The Netherlands) equipped with a high sensitivity pinhole collimator (XXUHS-M, 3.00 mm pinhole diameter). […] The CT and registered attenuation-corrected SPECT images were analyzed using IMALYTICS Preclinical 3.0 (Gremse-IT GmbH, Aachen, Germany).

[9] = 4 h p.i., block (50-fold excess unlabeled)

T1 sequence (Q04609 whole entry): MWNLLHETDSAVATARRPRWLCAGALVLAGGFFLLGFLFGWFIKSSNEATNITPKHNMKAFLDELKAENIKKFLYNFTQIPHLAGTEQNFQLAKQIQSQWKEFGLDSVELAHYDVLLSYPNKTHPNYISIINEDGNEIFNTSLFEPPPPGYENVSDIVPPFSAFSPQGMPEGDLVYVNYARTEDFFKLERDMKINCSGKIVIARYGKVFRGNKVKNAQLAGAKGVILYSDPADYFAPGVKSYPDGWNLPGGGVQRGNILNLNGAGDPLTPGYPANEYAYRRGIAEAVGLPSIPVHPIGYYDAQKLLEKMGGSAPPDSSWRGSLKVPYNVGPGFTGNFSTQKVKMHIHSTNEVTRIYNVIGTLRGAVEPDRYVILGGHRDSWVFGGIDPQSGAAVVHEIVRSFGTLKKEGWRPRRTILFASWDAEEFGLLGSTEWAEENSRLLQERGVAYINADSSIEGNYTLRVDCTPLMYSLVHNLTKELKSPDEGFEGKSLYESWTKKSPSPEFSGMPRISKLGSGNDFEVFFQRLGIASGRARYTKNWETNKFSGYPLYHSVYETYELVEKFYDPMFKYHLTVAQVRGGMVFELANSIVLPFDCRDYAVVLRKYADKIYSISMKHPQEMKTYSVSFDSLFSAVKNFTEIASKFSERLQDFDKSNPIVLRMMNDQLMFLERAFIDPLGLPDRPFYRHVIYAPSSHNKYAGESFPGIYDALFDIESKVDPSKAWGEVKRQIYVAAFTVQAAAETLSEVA

## CC(C)CC(NC(=O)C(Cc1ccccc1)NC(=O)C(CC(=O)O)NC(=O)CCC(=O)Nc1ccc(CCCC(CN2CCN(CC(=O)O)CCN(CC(=O)O)CC2)N(CC(=O)O)CC(=O)O)cc1)C(O)CC(=O)NCCCCCC(=O)NCCCCC(NC(=O)NC(CCC(=O)O)C(=O)O)C(=O)O (stereo not drawn) [3p-C-NETA-ePSMA-16, EuK(Ahx-Sta-Phe-Asp-3p-C-NETA)]
[1]; stored as a lyophilized powder
  storage stability: > 1 year
[1]; stored as an aqueous solution
  storage stability: > 6 months
[2]
  IC50: 4.61 ± 1.33 nM
[2]; vs PSMA-617
  IC50 relative to reference PSMA-617 (fold higher IC50 / lower affinity): 5 fold

## O=C(O)CN1CCN(CC(=O)O)CCN(CC(CCCc2ccc([N+](=O)[O-])cc2)N(CC(=O)O)CC(=O)O)CC1 (centres unmarked) [3p-C-NETA]
[3]
  stability in serum in vitro: highly stable in serum in vitro for up to 11 days

## O=C(O)CC[C@H](NC(=O)N[C@@H](CCCCNC(=O)[C@H](Cc1ccc2ccccc2c1)NC(=O)[C@H]1CC[C@H](CNC(=O)CN2CCN(CC(=O)O)CCN(CC(=O)O)CCN(CC(=O)O)CC2)CC1)C(=O)O)C(=O)O [PSMA-617, reference compound]
[2]
  IC50: 0.78 ± 0.3 nM

## CC(C)C[C@H](NC(=O)[C@H](Cc1ccccc1)NC(=O)[C@H](CC(=O)O)NC(=O)CCC(=O)Nc1ccc(CCCC(CN2CCN(CC(=O)[O-])CCN(CC(=O)[O-])CC2)N(CC(=O)[O-])CC(=O)O)cc1)[C@@H](O)CC(=O)NCCCCCC(=O)NCCCC[C@H](NC(=O)N[C@@H](CCC(=O)O)C(=O)O)C(=O)O.[111In+3] (some centres unmarked) [[^111In]In-3p-C-NETA-ePSMA-16]
[4]
  total cell uptake: 1.41 ± 0.20 % ID/10^6 cells
[4]; 10^−9 M, 2 h, 37 °C
  internalized fraction: 0.50 ± 0.16 % AD/10^6 cells
  membrane-bound fraction: 0.90 ± 0.05 % AD/10^6 cells
[4]; 50-fold excess of unlabeled compound
  cell uptake in the blocked group: no uptake
[5]
  logD: −2.95 ± 0.19
[6]; 1 h p.i.
  Blood uptake: 0.26 ± 0.19 % ID/g
  Bone uptake: 0.20 ± 0.05 % ID/g
  Heart uptake: 0.15 ± 0.05 % ID/g
  Intestines uptake: 0.59 ± 0.13 % ID/g
  Kidney uptake: 26.70 ± 2.12 % ID/g
  Liver uptake: 0.20 ± 0.03 % ID/g
  Lung uptake: 0.45 ± 0.10 % ID/g
  Muscle uptake: 0.13 ± 0.09 % ID/g
  Pancreas uptake: 0.23 ± 0.05 % ID/g
  Prostate uptake: 1.08 ± 0.41 % ID/g
  Skin uptake: 0.46 ± 0.15 % ID/g
  Spleen uptake: 1.28 ± 0.49 % ID/g
  Stomach uptake: 0.31 ± 0.21 % ID/g
  Tumor uptake: 1.62 ± 0.55 % ID/g
[6]; 4 h p.i.
  Blood uptake: 0.01 ± 0.01 % ID/g
  Bone uptake: 0.03 ± 0.00 % ID/g
  Heart uptake: 0.02 ± 0.00 % ID/g
  Intestines uptake: 0.60 ± 0.28 % ID/g
  Kidney uptake: 11.62 ± 0.62 % ID/g
  Liver uptake: 0.07 ± 0.01 % ID/g
  Lung uptake: 0.06 ± 0.01 % ID/g
  Muscle uptake: 0.04 ± 0.00 % ID/g
  Pancreas uptake: 0.03 ± 0.00 % ID/g
  Prostate uptake: 0.12 ± 0.07 % ID/g
  Skin uptake: 0.24 ± 0.15 % ID/g
  Spleen uptake: 0.12 ± 0.01 % ID/g
  Stomach uptake: 0.05 ± 0.02 % ID/g
  Tumor uptake: 0.89 ± 0.58 % ID/g
[6]; [9]
  Blood uptake: 0.01 ± 0.00 % ID/g
  Bone uptake: 0.03 ± 0.01 % ID/g
  Heart uptake: 0.02 ± 0.00 % ID/g
  Intestines uptake: 0.68 ± 0.02 % ID/g
  Kidney uptake: 9.53 ± 1.66 % ID/g
  Liver uptake: 0.07 ± 0.01 % ID/g
  Lung uptake: 0.05 ± 0.01 % ID/g
  Muscle uptake: 0.02 ± 0.01 % ID/g
  Pancreas uptake: 0.02 ± 0.01 % ID/g
  Prostate uptake: 0.07 ± 0.02 % ID/g
  Skin uptake: 0.13 ± 0.02 % ID/g
  Spleen uptake: 0.05 ± 0.01 % ID/g
  Stomach uptake: 0.15 ± 0.10 % ID/g
  Tumor uptake: 0.12 ± 0.04 % ID/g
[6]; 24 h p.i.
  Bone uptake: 0.02 ± 0.00 % ID/g
  Heart uptake: 0.01 ± 0.00 % ID/g
  Intestines uptake: 0.04 ± 0.02 % ID/g
  Kidney uptake: 4.27 ± 0.87 % ID/g
  Liver uptake: 0.03 ± 0.00 % ID/g
  Lung uptake: 0.02 ± 0.00 % ID/g
  Muscle uptake: 0.01 ± 0.00 % ID/g
  Pancreas uptake: 0.01 ± 0.00 % ID/g
  Prostate uptake: 0.04 ± 0.01 % ID/g
  Skin uptake: 0.10 ± 0.06 % ID/g
  Spleen uptake: 0.03 ± 0.00 % ID/g
  Stomach uptake: 0.01 ± 0.00 % ID/g
  Tumor uptake: 0.12 ± 0.02 % ID/g
[7]
  intact radioligand in transchelation challenge: 93.2 ± 0.7% and > 90%
[8]
  tumor signal in SPECT/CT: faint signal

Source: PMC10301001, “Radiochemical and Biological Evaluation of 3p-C-NETA-ePSMA-16, a Promising PSMA-Targeting Agent for Radiotheranostics” (Pharmaceuticals, 2023)
